The values that follow are results of earlier work, collected in patent US20220088213A1, “DRUG DELIVERY SYSTEM USING PH-DEPENDENT CELL-PENETRATING PEPTIDES, AND COMPOSITE THEREOF WITH DRUG” (priority 2019, published 2022).

Where two headings read alike, the source gives them in different places.

The series concerns cell membrane. The following applies: cited from earlier work.

For the substance “ATRAM (GLAGLAGLLGLEGLLGLPLGLLEGLWLGLELEGN; Penetrating Peptide)”, for the setting “pH dependence”, the cell-penetrating activity entry was “exhibits cell-penetrating activity only at a slightly acidic pH”. As for GALA, the cell membrane penetration entry is “penetrates a cell membrane” (acidic pH conditions) and “cannot penetrate the cell membrane” (neutral pH).
